US20200182861A1, “METHOD FOR DIFFERENTIATION OF PLURIPOTENT STEM CELLS INTO VASCULAR BED CELLS” (Hoffmann-La Roche Inc., priority 2011, published 2020)

Columns and labels:
E-SELECTIN = assay: Pro-inflammatory cytokine response assay, cell-based ELISA; design: species or system human; conditions: 1 nM, SC-derived ECs
Procedure: FIG. 15B: Pro-inflammatory cytokine response assay. SC-derived ECs upregulate the expression of the adhesion molecule E-SELECTIN upon pro-inflammatory cytokine administration. Cell-based ELISA was used to measure the activation of SC-derived endothelial cells in response to 1 nM TNFα.
(§1) 20 000 Stem Cell-derived endothelial cells/well were seeded onto 96-well plates and cultured for 2 days in EGM-2 medium (Lonza) until confluence. Media was changed with EGM-2 medium supplemented with 1 nM TNFα (R&D Systems). After an incubation of 24 hours SC-derived ECs were briefly PBS-washed and PFA-fixed Primary antibodies for human anti-ICAM and anti-E-Selectin were purchased from R&D Systems. An anti-mouseIgG/biotinylated (Amersham) as secondary antibody and a Streptavidin/Peroxidase complex (Amersham) were used. Luminescence was quantified in a microplate reader.

[1] = test system: HL60 cells with SC-derived ECs; assay: Leukocyte-endothelial adhesion assay; format: cell-based, human; conditions: SC-derived ECs stimulated, 1 nM
Procedure: FIG. 16: Leukocyte-endothelial adhesion assay. Activated endothelial cells present adhesion molecules for the recruitment leukocytes. The response to 1 nM TNFα was studied by co-cultivating Calcein-stained HL60 cells with SC-derived ECs. Adhesion of HL60 cells to endothelial cells was quantified by measuring the fluorescence intensity.
2×10^4 Stem Cell-derived endothelial cells/well were seeded onto 96-well plates and cultured for 2 days in EGM-2 medium (Lonza) until confluence. Media was changed with EGM-2 medium supplemented with 1 nM TNFα (R&D Systems). SC-derived ECs were TNFα-stimulated for 4 hours. Thereafter 1.5×10^5 Calcein-labeled HL60 cells were added to each 96 well. After an incubation of one hour medium was removed and Sc-ECs were PBS-washed. Lyse the plate with 1% NP-40 detergent solution for 15 minutes. Supernatants were transferred into optiplates and fluorescence measured in a microplate reader.
To determine whether the differentiation system generates bona fide ECs, we challenged the SC-derived ECs with proinflammatory cytokines and analyzed for an activated expression of effectors of immune cell migration. […] We further confirmed by flow cytometry the presence of ICAM1 and E-SELECTIN upon TNF-α as well as […] stimulation (FIG. 16). HLA-ABC expression served as control to analyze a general und cell type unspecific response to proinflammatory cytokines. […]

ICAM1 = assay: Pro-inflammatory cytokine response assay, cell-based ELISA; design: species or system human; conditions: 1 nM, SC-derived ECs
Procedure: FIG. 15A: Pro-inflammatory cytokine response assay. SC-derived ECs upregulate the expression of the adhesion molecule ICAM1 upon pro-inflammatory cytokine administration. Cell-based ELISA was used to measure the activation of SC-derived endothelial cells in response to 1 nM TNFα.
as §1

TNFα was tested, and the E-SELECTIN expression (E-SELECTIN) was “significantly upregulated”, the “adhesion / recruitment of HL60 leukocytes” value [1] was “significantly enhanced” and the ICAM1 expression (ICAM1) was “significantly upregulated”.
